Test system: HBV (encapsidated HBV DNA, HepG2.2.15 cells)
Test: HBV replication inhibition assay, BDNA assay in HepG2.2.15 cells
Type: cell-based
Conditions: Hepatitis B virus, HepG2.2.15, Activity in BDNA-assay
Method in brief: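 Encapsidated HBV DNA in DNase-treated, proteinase K-lysed supernatant was measured by branched DNA after 6 days' compound exposure, refreshed on day 3, of HepG2.2.15 cells in 0.5% DMSO. Signals normalized to DMSO-treated wells; EC50 from nonlinear regression of inhibition against log concentration.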

| Structure (SMILES) | EC50 [nM] |
| --- | --- |
| C[C@@H]1Cc2nn3c(c2CN1C(=O)Nc1ccc(F)c(C(F)(F)F)c1)C(=O)N(C)CC(C)(C)C3 [Compound 140, (R)-N-(4-Fluoro-3-(trifluoromethyl)phenyl)-3,8,8,10-tetramethyl-11-oxo-1,3,4,7,8,9,10,11-octahydro-2H-pyrido[4′,3′:3,4]pyrazolo[1,5-a][1,4]diazepine-2-carboxamide] | 1 to 100 |
| C[C@@H]1Cc2nn3c(c2CN1C(=O)Nc1ccc(F)c(C#N)c1)C(=O)N(C)CC1(CC(O)C1)C3 (stereo partly drawn) [Compound 141, (R)-N-(3-Cyano-4-fluorophenyl)-3-hydroxy-3′,10′-dimethyl-11′-oxo-1′,3′,4′,9′,10′,11′-hexahydro-2′H,7′H-spiro[cyclobutane-1,8′-pyrido[4′,3′:3,4]pyrazolo[1,5-a][1,4]diazepine]-2′-carboxamide] | 1 to 100 |
| C[C@@H]1Cc2nn3c(c2CN1C(=O)Nc1ccc(F)c(C#N)c1)C(=O)N(C)CC1(CC(F)C1)C3 (stereo partly drawn) [Compound 142, (R)-N-(3-Cyano-4-fluorophenyl)-3-fluoro-3′,10′-dimethyl-11′-oxo-1′,3′,4′,9′,10′,11′-hexahydro-2′H,7′H-spiro[cyclobutane-1,8′-pyrido[4′,3′:3,4]pyrazolo[1,5-a][1,4]diazepine]-2′-carboxamide] | 1 to 100 |
| C[C@@H]1Cc2nn3c(c2CN1C(=O)Nc1ccc(F)c(C#N)c1)C(=O)N(C)CC1(C3)CC(F)(F)C1 [Compound 143, (R)-N-(3-Cyano-4-fluorophenyl)-3,3-difluoro-3′,10′-dimethyl-11′-oxo-1′,3′,4′,9′,10′,11′-hexahydro-2′H,7′H-spiro[cyclobutane-1,8′-pyrido[4′,3′:3,4]pyrazolo[1,5-a][1,4]diazepine]-2′-carboxamide] | 1 to 100 |
| C[C@@H]1Cc2nn3c(c2CN1C(=O)Nc1ccc(F)c(C#N)c1)C(=O)N(C)[C@H](CF)C3 [Compound 149, (3R,8S)-N-(3-cyano-4-fluorophenyl)-8-(fluoromethyl)-3,9-dimethyl-10-oxo-3,4,7,8,9,10-hexahydropyrido[4′,3′:3,4]pyrazolo[1,5-a]pyrazine-2(1H)-carboxamide] | 1 to 100 |
| C[C@@H]1Cc2nn3c(c2CN1C(=O)Nc1ccc(F)c(C#N)c1)C(=O)N(C)[C@H](COCC(F)F)C3 [Compound 150, (3R,8S)-N-(3-cyano-4-fluorophenyl)-8-((2,2-difluoroethoxy)methyl)-3,9-dimethyl-10-oxo-3,4,7,8,9,10-hexahydropyrido[4′,3′:3,4]pyrazolo[1,5-a]pyrazine-2(1H)-carboxamide] | 1 to 100 |

— patent US10975077B2 (Novira Therapeutics, Inc., priority 2016, dated 2021)
